According to US20260284082A1, “TARGETING THE PANX1-P2Y2R-TRPV4 PATHWAY TO TREAT LUNG ISCHEMIA-REPERFUSION INJURY” (UNIVERSITY OF VIRGINIA PATENT FOUNDATION, priority 2023, published 2026):

Tested on: endothelium of human small PAs
Assay: Baseline endothelial Ca2+ signaling in freshly isolated small PAs from human lungs exposed to HR
Type: cell-based
Settings: ARC; human small PAs (~50 μm)
Procedure: Ca^2+ imaging in Pas: Ca^2+ imaging in small Pas was performed as previously described.8 Fourth-order, small (~50 μm diameter) Pas (see FIG. 1B) were dissected from left lungs in cold HEPES-buffered physiological salt solution (HEPES-PSS; 10 mM HEPES, 134 mM NaCl, 6 mM KCl, 1 mM MgCl2 hexahydrate, 2 mM CaCl2) dihydrate, and 7 mM dextrose; pH adjusted to 7.4 using 1 M NaOH). Ca^2+ imaging studies were performed in en face preparations of small Pas incubated with Fluo-4 AM (10 μM) and pluronic acid (0.04%) at 37° C. for 10 minutes. For studies after sham or lung IR surgery, small Pas were immediately dissected out after the indicated reperfusion time and incubated en face with Fluo-4 AM. For acute hypoxia-reoxygenation (HR) exposure, small Pas were washed with PBS, after which serum free/glucose-free endothelial cell medium was added. Small Pas were placed in a humidified, sealed hypoxia chamber (Billups-Rothenberg, San Diego, CA), which was subsequently flushed with 95% nitrogen/5% CO2 for 20 minutes and placed in a 37° C. incubator to initiate hypoxia. After 1 hour of hypoxia, the chamber was opened to terminate hypoxia. […] Fluo-4 was excited using a 488-nm solid-state laser, and emitted fluorescence was captured using a 525/36-nm band-pass filter. […] Baseline Ca^2+ signaling activity was recorded in the absence of CPA. […]

## Cc1ccc2c(c1)C=Cc1cc(C)ccc1C2c1cn(Cc2ccc(C(=O)Nc3nn[nH]n3)o2)c(=O)[nH]c1=S [ARC, AR-C 118925XX]
  HR-induced increase in endothelial Ca2+ signaling: inhibited
